The text below walks through data of a melting point compilation (Tetko et al.; mined from patent text by program, amines drawn as free bases though some values may be those of a salt).

`CS(=O)(=O)Nc1cccc(Nc2nc(Oc3ccc(F)cc3)c3nc[nH]c3n2)c1` yielded a melting point of 136 to 139 °C. The result for `O=C(CCNc1c(C(=O)O)[nH]c2cc(Cl)ccc12)c1cccc(F)c1` reads 258 to 260 °C. The result for `Cc1c(C(F)(F)C(F)(F)F)ncn(-c2c(Cl)cc(C(F)(F)F)cc2C#N)c1=O` reads 158 to 160 °C; that for `COc1cc(O)c(C(=O)c2ccccc2)cc1CN(C)C`, 69 °C; that for `O=C(O)c1ccc(C(F)(F)C(F)(F)F)cc1[N+](=O)[O-]`, 124 to 135 °C. The result for `Cc1cccc(CN2CCC(c3cc(-c4ccc(Cl)cc4)[nH]n3)CC2)c1` reads 119 to 120 °C; that for `O=C(O)c1ccc(C#Cc2ccccc2)cc1`, 224 to 225 °C. As to `O=C1Nc2cc(CN3CCN(c4ccc(Cl)cc4)CC3)cnc2N2CCC[C@@H]12`, the melting point lay within 265 to 268 °C.

As for `COc1cc([N+](=O)[O-])c(N)cc1O`, the melting point came to 208 °C. The result for `CCOC(=O)C(C)=NNc1ccc(Cl)c(F)c1` reads 161 to 163 °C. The result for `CCOC(=O)C(C#N)=Cc1cc(Oc2c(Cl)cc(C(F)(F)F)cc2Cl)ccc1[N+](=O)[O-]` reads 99 °C; that for `O=C(O)c1cccc(-c2nc3sccn3c2-c2ccnc(N[C@@H]3CCCN(S(=O)(=O)c4ccc(Cl)cc4)C3)n2)c1`, 190 to 195 °C; that for `Cc1ccc(-c2nn(-c3ccccc3C)c(N)c2C(N)=O)cc1`, 133 to 135 °C. The same measure for `CC(C)(C)c1ccc(OCC(O)CN2CCC3(CC2)CSC2=C(O3)c3cc(Cl)ccc3C(=O)C2=O)cc1` (configuration not stated): 94 to 97 °C; for `CCCn1c(COCC)nc2c(N)nc3cc(OC4CCN(S(C)(=O)=O)CC4)ccc3c21`: 215 to 217 °C. With `CC(=O)NC1CCCn2c1c(C)c1ccccc12` (configuration not stated), the melting point lay in the range of 158 to 160 °C.

For the molecule `COC(=O)C(=O)c1c(OC)cc(OCCOc2ccc3ccccc3c2)cc1OC`, the melting point lay within 161 to 162 °C.

For the molecule `Brc1cccc(-c2ccnn2-c2ccc3c(c2)OCO3)c1`, the melting point fell in the range of 195 to 197 °C. The same measure for `O=C(C=Cc1ccc(N2CCCC2)cc1)c1ccc2c(c1)CCC2`: 162 to 164 °C.

In turn, `Cc1c(C(=O)c2ccccc2)c(NC(=O)CNO)cn1C` showed a melting point of 140 to 142 °C. The same measure for `COc1ccc(NC(=O)c2ccc(OC)c(C34CC5CC(CC(C5)C3)C4)c2)c(N)c1`: 211 to 213 °C; for `COc1ccc(F)cc1C(C)(C)CC(C)(O)Cc1cc2ccccc2[nH]1` (configuration not stated): 118 to 120 °C. The result for `CC(=O)Nc1ccc(N2CC(CNC(C)=S)OC2=O)cc1F` (configuration not stated) reads 200 to 201 °C; that for `Cn1nc(-c2ccccc2)nc1-c1cccnc1`, 97 to 98 °C.

The molecule `O=[N+]([O-])c1cccc(/C=C/c2ccc3ccccc3n2)c1` yielded a melting point of 145 to 147 °C. Take `Cc1nc(NC(=O)Nc2ccc(N3CCN(C(=O)Nc4cc(OCCO)ccc4Cl)CC3)nc2)sc1C`: the melting point was in the range of 128 to 129 °C. The result for `CC(=O)OC(CCc1cc2cccnc2n(-c2cccc([N+](=O)[O-])c2)c1=O)c1ccncc1` (configuration not stated) reads 69 to 71 °C; that for `CC(=O)CC[C@H](NC(=O)OCc1ccccc1)C(N)=O`, 142 to 144 °C. The result for `COc1ccc(C2C(C(=O)/C=C/c3ccc(OCc4ccccc4)c(OC)c3)C(=O)CC(c3ccc(OCc4ccccc4)cc3)C2[N+](=O)[O-])cc1` (configuration not stated) reads 76 to 78 °C. The same measure for `CC(C)(C)OC(=O)CCC(CCC(=O)OC(C)(C)C)(CCC(=O)OC(C)(C)C)NC(=O)C=C=C[N+](=O)[O-]`: 140 to 141 °C; for `CC1=C(/C=C/C(C)=C/CO)C(C)(C)CC(O)C1=O` (configuration not stated): 85 to 86 °C. `CC(Cc1nc(-c2ccccc2)nc2ccccc12)C(=O)NC(CO)c1ccccc1` (configuration not stated) registered a melting point of 199 °C.

`N#Cc1c(Cl)c[nH]c1-c1ccc(Cl)cc1`: the melting point is 251 to 254 °C. The same measure for `O=C(NC1CCOCC1)c1ccc(-c2cc(-c3c[nH]nc3-c3ccccn3)ccn2)cc1`: 248 °C. The result for `CC(C)(C)OC(=O)Nc1ccc(-c2cc(F)ccc2F)cc1[N+](=O)[O-]` reads 104 °C; that for `COC(=O)c1cc(-c2ccccc2)cc2c1C(C)(C)CCC2(C)C`, 118 °C; that for `CN(Cc1ccc(F)cc1)C1CCN(c2ccc(C(=O)O)cc2)CC1`, 256 to 258 °C.

`Cc1c(C(=O)N(C)N2CC=CCC2)nn(-c2ccc(Cl)cc2Cl)c1-c1ccc(Cl)cc1` showed a melting point of 138 °C. Molecule `O=c1cc(-c2cc(OCc3ccccc3)cc(OCc3ccccc3)c2)oc2cc(OCC(O)CN3CCN(c4ccccc4)CC3)ccc12` (configuration not stated) registered a melting point of 168 to 170 °C. The same measure for `NCc1nc2ccccc2[nH]1`: 81 to 83 °C; for `CC(=NO)C(C)(C)NCCCNC(C)(C)C(Cn1cc(C)nc1[N+](=O)[O-])=NO`: 140 to 141 °C. The result for `CCCc1ccc(C(=O)Nc2ccc3c(c2)nc(C)n3C)cc1` reads 214 to 218 °C; that for `O=C(c1ccc2n1Cc1ccccc1N(S(=O)(=O)c1ccc(Br)cc1)C2)C(Cl)(Cl)Cl`, 182 to 183 °C. The result for `COc1cc(C(O)(C(F)(F)F)C(F)(F)F)cc(C)c1OCC(=O)O` reads 111 to 113 °C. `CCN1NC=C2C1=NC=CC2(ON=C(C)C)C(O)c1ccccn1` (configuration not stated) displayed a melting point of 131 to 133 °C.

The molecule `O=S1(=O)c2ccccc2C(c2ccccc2)N1CCCN1CCN(c2ccc(F)cc2)CC1` (racemic) showed a melting point of 182 °C. The same measure for `O=C(CNC(=O)c1ccc([N+](=O)[O-])c(F)c1)OCc1ccccc1`: 118 to 120 °C. Molecule `CCCCCN1C(=O)C(O)(c2cc3c(cc2O)OCO3)c2ccncc21` (configuration not stated) gave a melting point of 193 to 195 °C. `CCCn1c(=O)c2[nH]c(/C=C/c3cccc([N+](=O)[O-])c3)nc2n(CCC)c1=O` returned a melting point of 256 to 257 °C. The same measure for `CCON=C(C)c1cccc(S(N)(=O)=O)c1`: 157 to 158 °C; for `Cc1nc(-n2cnn(Cc3ccc(F)cc3)c2=O)sc1C(=O)NCc1cn(C)cn1`: 225 to 226 °C; for `COc1cc2c(cc1OC)C1(CNC(=O)C1)CC2=O` (configuration not stated): 193 to 195 °C.

For the molecule `Nc1ccc(-c2ccc(N)c([N+](=O)[O-])c2)cc1[N+](=O)[O-]`, the melting point turned out to be 275 °C. Molecule `NC(=O)c1ncn2c1CN=C(c1ccccc1F)c1cc(Cl)ccc1-2` registered a melting point of 292 to 294 °C. The result for `COC(OC)C(C)n1nnc2ccc(OCc3ccccc3)cc21` (configuration not stated) reads 101 to 103 °C; that for `O=C(Cn1nnnc1-c1ccsc1)OCCO`, 103 to 106 °C; that for `O=C1CNN(Cc2ccc(Cl)cc2Cl)C(=O)N1`, 167 °C. The result for `CC(C)(COc1nn2ccnc2c2c1CCCC2)CS(N)(=O)=O` reads 198 to 200 °C; that for `CC(=O)NCC1CN(c2ccc(N3CC4CCCN(C(=O)OCc5ccccc5)C4C3)c(F)c2)C(=O)O1` (configuration not stated), 74 to 76 °C; that for `COc1ccccc1-c1nc(N)ncc1-c1ccc(=O)n(C(C)C)n1`, 170 °C. The same measure for `COP(=O)(CC1(O)O[C@H](COCc2ccccc2)[C@@H](OCc2ccccc2)[C@H](OCc2ccccc2)[C@H]1OCc1ccccc1)OC` (some centres not stated): 112 to 113 °C. In the case of `COc1cc2c(cc1OC)-c1ncc(C(=O)O)c(=O)n1CC2`, the melting point fell in the range of 264 to 266 °C. The same measure for `COC(=O)c1cc(C)cc(OC)c1C1=C(OC)C(=O)c2c(O)cccc2C1=O`: 165 to 167 °C; for `COc1ccc(Cl)cc1C(=O)NCCc1ccc(C(C)CC(=O)O)cc1` (configuration not stated): 125 to 127 °C. The result for `CCCc1c(/C=C/c2ccccc2)nc2ccc(C(=O)O)cn2c1=O` reads 250 to 252 °C. The same measure for `Cc1ncsc1CCOc1ccc(NC(=O)c2cc(F)cc(N3CCCCC3)c2)c2ccccc12`: 221 to 222 °C. Turning to `COc1cccc2c1OC1C3CCC4(C(=O)N(CC5CC5)CCC214)C(C(C)(O)C(C)(C)C)C3` (configuration not stated), the melting point lay in the range of 205 to 206 °C. The result for `CCOC(=O)Cn1c(-c2cc3c(cc2N)OCO3)nc2ccccc21` reads 284 to 287 °C. The same measure for `CC(C)n1nc(-c2cc(N)cnc2-c2ccccc2)ccc1=O`: 147 to 148 °C; for `CCOC(=O)C1C=Nc2c(cccc2[N+](=O)[O-])C1=O` (configuration not stated): 241 to 243 °C; for `CN(Cc1cc2c(=O)c(C(=O)NCc3ccc(Cl)cc3)cn(C)c2o1)CC(O)c1ccc(O)cc1` (configuration not stated): 72 to 75 °C. The same measure for `CC(=CCCC(C)C1CCC2(C)C3=CCC4C(C)(CCC5(OCCO5)C4(C)C)C3=CCC12C)CO` (configuration not stated): 165 to 168 °C; for `NC(=O)Oc1ccccc1-c1nc2ccc(OCc3c(F)cccc3F)cc2s1`: 216 °C. Consider `O=C1C(c2ccccc2)=C(c2ccccc2)C(=O)N1Cc1ccccc1`, for which the melting point is 123 to 124 °C. The same measure for `CC(=C1SCCCS1)c1ccc(N2CCN(C)CC2)cc1`: 91 to 92 °C; for `COC(=O)C(C)(C)NS(=O)(=O)c1ccc2c(Cl)cnc(Cl)c2c1`: 160 to 161 °C. The result for `COc1ncnc(OC)c1NC(N)=S` reads 210 °C. As for `O=C1Cc2ccccc2N1C1=NCCS1`, the melting point lay in the range of 97 to 99 °C. The same measure for `COc1cc2c(-c3ccnc(NN)c3)c(CO)c(CO)cc2cc1OCc1ccccc1`: 155 to 157 °C. Molecule `O=C1NC(=O)C(Nc2ccc(CCNCC(O)c3cccnc3)cc2)S1` (configuration not stated) had a melting point of 46 to 48 °C. The result for `CCCc1c(/C=C/c2ccc(C)cc2)nc2ccc(C(=O)O)cn2c1=O` reads 274 to 275 °C. Turning to `CC(=O)NCc1ccc2c(c1)ncn2-c1cccc(-c2nccs2)c1`, the melting point was 156 °C. The result for `O=C(O)[C@@H]1CSC2(CCSCC2)N1` reads 196 °C.

For the molecule `CC(=NO)C1=CCN(C)CC1`, the melting point fell in the range of 166 to 168 °C. The result for `CC(=O)Nc1ccc(S(=O)(=O)Nc2cccc3[nH]ccc23)cc1` reads over 260 °C; that for `c1ccc2c(c1)C1CCC2c2c(OCC3CO3)cccc21` (configuration not stated), 127 to 130 °C. The same measure for `Cc1cc(S(=O)(=O)N(C)CC(O)(CCl)c2ccccc2)ccc1Cl` (configuration not stated): 105 to 107 °C.

As usually defined, the melting point is the temperature of the solid-liquid transition.
